# Assay results as given in ChEMBL document CHEMBL1201862, “PubChem BioAssay data set” (2004).
# Activity calls are given as the source filed them.
# Legend:
# [1] = Luminescence Cell-Based Dose Retest to Confirm Inhibitors of Cancer Stem Cells. [Related pubchem assays (depositor defined):AID2717, AID2721]; format: functional; conditions: Homo sapiens
# Melanocortin receptor 4 = Melanocortin receptor 4 (Homo sapiens, UniProt P32245); format: functional, cell-based;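 note: Cell-based assay with luminescence read-out, confirmatory dose-response testing for agonist activity of biased ligands at MC4R; human U2OS cells with tagged receptor and beta-arrestin; potency of agonists that increase receptor coupling to beta-arrestin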
# HEK293 = experiment: inhibitors of LMP1-driven NF-kB reporter, dose response, cell-based, HEK293, luciferase, cherry-pick (AID 588343); format: functional; conditions: Homo sapiens
# [2] = target: T1, Carboxy-terminal domain RNA polymerase II polypeptide A small phosphatase 1 (Homo sapiens, UniProt Q9GZU7); experiment: inhibitors of CTDSP1, concentration-response testing, biochemical assay, absorbance-based, actives from ultra-high-throughput screening (AID 540297); format: functional
# T1 sequence (Q9GZU7 whole entry): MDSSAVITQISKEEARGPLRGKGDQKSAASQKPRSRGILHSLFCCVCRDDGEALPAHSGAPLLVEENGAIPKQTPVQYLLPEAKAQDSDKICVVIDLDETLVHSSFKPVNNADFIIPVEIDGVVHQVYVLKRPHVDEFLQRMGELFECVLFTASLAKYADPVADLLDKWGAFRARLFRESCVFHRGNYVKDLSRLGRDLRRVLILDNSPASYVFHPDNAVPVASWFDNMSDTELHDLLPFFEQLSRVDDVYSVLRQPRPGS
# Cytochrome P450 3A4 = Cytochrome P450 3A4 (Homo sapiens, UniProt P08684);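 note: CYP3A4 tested as one member of a cytochrome P450 panel screen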
# Cytochrome P450 2D6 = Cytochrome P450 2D6 (Homo sapiens, UniProt P10635);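 note: CYP2D6 member of a cytochrome P450 panel assay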
# [3] = target: Dual specificity tyrosine-phosphorylation-regulated kinase 1A (Rattus norvegicus, UniProt Q63470); format: biochemical, Homo sapiens
# [4] = target: T2, Replicative DNA helicase DnaB (Mycobacterium tuberculosis, UniProt P9WMR3); experiment: DnaB intein splicing inhibitors, dose response, biochemical, cell-free fluorescence (AID 449749); format: functional
# T2 sequence (P9WMR3 whole entry): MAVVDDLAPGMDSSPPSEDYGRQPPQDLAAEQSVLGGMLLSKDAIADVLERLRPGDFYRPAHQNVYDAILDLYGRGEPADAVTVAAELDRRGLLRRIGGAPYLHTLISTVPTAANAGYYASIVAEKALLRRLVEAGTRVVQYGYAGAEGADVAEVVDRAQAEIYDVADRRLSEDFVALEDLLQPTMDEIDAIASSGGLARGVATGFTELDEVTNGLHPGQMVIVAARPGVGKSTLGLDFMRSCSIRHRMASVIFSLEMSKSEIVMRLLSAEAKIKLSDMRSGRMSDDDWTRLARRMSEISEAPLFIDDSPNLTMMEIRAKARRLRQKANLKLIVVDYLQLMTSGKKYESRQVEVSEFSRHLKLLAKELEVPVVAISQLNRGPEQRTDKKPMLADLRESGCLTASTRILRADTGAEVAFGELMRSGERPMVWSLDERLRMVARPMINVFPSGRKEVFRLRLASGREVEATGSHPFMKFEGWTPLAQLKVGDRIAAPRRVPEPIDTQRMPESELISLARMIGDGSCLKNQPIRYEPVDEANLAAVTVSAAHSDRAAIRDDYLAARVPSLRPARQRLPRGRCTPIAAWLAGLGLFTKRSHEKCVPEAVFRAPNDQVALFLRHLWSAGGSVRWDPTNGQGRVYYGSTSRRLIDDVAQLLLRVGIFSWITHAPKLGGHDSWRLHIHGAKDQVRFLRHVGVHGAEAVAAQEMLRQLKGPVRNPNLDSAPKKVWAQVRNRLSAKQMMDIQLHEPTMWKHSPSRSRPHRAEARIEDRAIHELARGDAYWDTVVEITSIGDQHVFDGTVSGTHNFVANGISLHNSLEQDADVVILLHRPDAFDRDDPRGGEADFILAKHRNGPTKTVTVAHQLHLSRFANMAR
# Protein RecA = target: T3, Protein RecA (Mycobacterium tuberculosis, UniProt P9WHJ3); experiment: Fluorescence Cell-Free Homogeneous Dose Retest to Identify Inhibitors of RecA-Intein Splicing Activity. [Related pubchem assays (depositor defined):AID2097, AID2223, AID489010, AID492950]; format: functional
# T3 sequence (P9WHJ3 whole entry): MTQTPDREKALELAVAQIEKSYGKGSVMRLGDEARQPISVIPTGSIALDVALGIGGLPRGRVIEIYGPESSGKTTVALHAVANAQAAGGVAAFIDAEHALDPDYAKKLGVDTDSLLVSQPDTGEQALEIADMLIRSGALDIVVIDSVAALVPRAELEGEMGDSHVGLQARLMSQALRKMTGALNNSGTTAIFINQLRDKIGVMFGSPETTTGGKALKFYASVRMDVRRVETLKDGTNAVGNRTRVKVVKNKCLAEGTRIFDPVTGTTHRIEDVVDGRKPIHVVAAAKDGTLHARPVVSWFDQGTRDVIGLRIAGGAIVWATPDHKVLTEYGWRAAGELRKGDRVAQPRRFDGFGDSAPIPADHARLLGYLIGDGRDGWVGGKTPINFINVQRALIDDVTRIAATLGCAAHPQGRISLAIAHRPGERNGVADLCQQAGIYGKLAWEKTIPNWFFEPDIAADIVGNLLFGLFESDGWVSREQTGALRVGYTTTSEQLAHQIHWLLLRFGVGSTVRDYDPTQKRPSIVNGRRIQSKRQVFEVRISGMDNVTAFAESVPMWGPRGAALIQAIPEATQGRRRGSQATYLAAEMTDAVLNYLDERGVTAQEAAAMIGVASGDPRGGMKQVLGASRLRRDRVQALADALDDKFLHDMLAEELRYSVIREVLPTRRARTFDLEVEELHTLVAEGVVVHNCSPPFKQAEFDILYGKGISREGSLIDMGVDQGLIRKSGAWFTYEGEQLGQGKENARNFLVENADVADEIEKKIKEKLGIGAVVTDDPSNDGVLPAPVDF
# Escherichia coli = experiment: microbe, parasite or virus in culture
# [5] = target: T4, Endoribonuclease toxin MazF (Escherichia coli K-12, UniProt P0AE70); experiment: fluorescent RNA oligo signal without MazF, dose response, counter-screen for MazEF activator project, biochemical, fluorescence, single-stranded RNase substrate (AID 588502); format: functional
# T4 sequence (P0AE70 whole entry): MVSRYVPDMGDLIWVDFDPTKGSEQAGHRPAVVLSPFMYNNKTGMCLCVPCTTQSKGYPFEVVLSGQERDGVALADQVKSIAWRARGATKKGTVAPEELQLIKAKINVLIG
# [6] = target: T4, Endoribonuclease toxin MazF; experiment: MazF toxin RNase activators, dose response, biochemical, fluorescence, single-stranded RNA substrate, uHTS hits (AID 588481); format: functional
# Troponin, cardiac muscle = Troponin, cardiac muscle (Homo sapiens, UniProt P19429+P45379+P63316); experiment: Fluorescence-based biochemical high throughput dose response assay for activators of the calcium sensitivity of cardiac Regulated Thin Filaments (RTF). [Related pubchem assays (depositor defined):AID493008, AID493018, AID504382, AID504383]; format: protein-complex assay
# [7] = growth suppression of beta-catenin-knockout colon cells, dose response, cell-based, HCT116, human colon tumor (AID 1045); format: functional;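 note: HCT116 colon tumor cells with beta catenin knocked out; cells exposed to compound for 60 hours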
# [8] = growth suppression of PTEN-null colon cells, dose response, cell-based, HCT116 PTEN knockout (AID 1047); format: functional;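 note: HCT116 colon tumor cells with PTEN knocked out; cells exposed to compound for 60 hours before readout; potency for loss of cell viability measured by luminescence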
# Protein Wnt-3a = Protein Wnt-3a (Mus musculus, UniProt P27467); experiment: Wnt3a-driven reporter signaling inhibition, dose response, selectivity assay for Gli-SUFU antagonist project, Wnt-LIGHT cells, luminescence (AID 651570); format: functional; conditions: read-out: IC50_Mean;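 note: Wnt-LIGHT reporter cells stimulated with conditioned medium from Wnt3a-producing cells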
# [9] = target: T5, Short transient receptor potential channel 4 (Mus musculus, UniProt Q9QUQ5); experiment: mouse TRPC4 channel inhibitors, dose response, cell-based, HEK293 TRPC4/mu-opioid, Fluo-4 calcium (AID 434942); format: functional;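 note: potency of inhibitors blocking the TRPC4 calcium response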
# T5 sequence (Q9QUQ5 whole entry): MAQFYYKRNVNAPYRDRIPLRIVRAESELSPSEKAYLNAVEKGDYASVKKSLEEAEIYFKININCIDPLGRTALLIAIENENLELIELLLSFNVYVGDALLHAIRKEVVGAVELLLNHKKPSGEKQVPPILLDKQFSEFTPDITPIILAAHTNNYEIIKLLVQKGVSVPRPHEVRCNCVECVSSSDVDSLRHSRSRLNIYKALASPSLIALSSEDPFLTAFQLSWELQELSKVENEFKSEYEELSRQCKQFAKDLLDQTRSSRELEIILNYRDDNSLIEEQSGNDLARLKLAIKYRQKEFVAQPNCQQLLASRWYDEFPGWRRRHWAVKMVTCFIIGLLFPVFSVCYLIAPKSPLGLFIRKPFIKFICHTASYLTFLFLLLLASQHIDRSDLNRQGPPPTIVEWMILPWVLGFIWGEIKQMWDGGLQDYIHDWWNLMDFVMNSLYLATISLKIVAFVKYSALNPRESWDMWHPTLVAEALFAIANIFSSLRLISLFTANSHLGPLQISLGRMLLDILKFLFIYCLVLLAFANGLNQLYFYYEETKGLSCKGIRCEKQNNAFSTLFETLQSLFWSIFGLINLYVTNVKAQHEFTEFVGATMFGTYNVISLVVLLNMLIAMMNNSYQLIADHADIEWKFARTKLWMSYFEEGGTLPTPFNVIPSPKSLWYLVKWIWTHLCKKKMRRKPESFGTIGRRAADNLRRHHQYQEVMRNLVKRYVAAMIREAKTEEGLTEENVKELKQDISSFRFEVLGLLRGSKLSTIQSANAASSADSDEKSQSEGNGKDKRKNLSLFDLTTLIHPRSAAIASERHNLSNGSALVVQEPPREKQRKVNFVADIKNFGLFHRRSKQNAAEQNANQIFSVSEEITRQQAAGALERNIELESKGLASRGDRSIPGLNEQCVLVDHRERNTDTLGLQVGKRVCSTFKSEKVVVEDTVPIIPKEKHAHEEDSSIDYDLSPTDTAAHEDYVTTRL
# [10] = control 3'UTR Renilla luciferase suppression, dose response, counter-screen for Shn3 inhibitor project, cell-based, Clone20-Shn3RL, cherry-picked (AID 624133); format: functional
# [11] = Shn3 3'UTR reporter inhibitors, dose response, cell-based, Clone20 osteoblasts, firefly luciferase, cherry-picked (AID 624132); format: functional;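 note: firefly luciferase luminescence from reporter carrying the Shn3 3'UTR in osteoblasts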
# [12] = HepG2 cell cytotoxicity, dose response, cytotoxicity control for Shn3 inhibitor project, CellTiter-Glo, cherry-picked (AID 624134); format: functional, cell-based
# INS1 = experiment: beta cell apoptosis inhibitors, cytokine rescue, dose response, luminescence, retest (AID 449756); format: functional, cell-based; conditions: Rattus norvegicus;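 note: cell death triggered by IL-1 beta plus TNF-alpha plus IFN-gamma mixture; protective hits raise ATP signal compared with cytokine alone wells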
# SN12K1 = experiment: cells; format: functional; conditions: Homo sapiens
# P388/ADR = experiment: cells; format: functional; conditions: Mus musculus
# P388 = experiment: cells; format: functional; conditions: Mus musculus
# [13] = target: DNA dC->dU-editing enzyme APOBEC-3A (Homo sapiens, UniProt P31941); experiment: APOBEC3A DNA deaminase inhibitors, dose response, biochemical (AID 504722); format: functional
# [14] = target: DNA dC->dU-editing enzyme APOBEC-3G (Homo sapiens, UniProt Q9HC16); experiment: Dose Response confirmation of small molecule APOBEC3G DNA Deaminase Inhibitors via a fluorescence-based single-stranded DNA deaminase assay. [Related pubchem assays (depositor defined):AID493012, AID493028]; format: functional
smiles,measurement,setting,value
COc1ccc(-c2sc3ccc(N4CCOCC4)cc3c2C#CC2(O)CCCCC2)cc1,AC50,[1],0.749 µM (active)
same,EC50,Melanocortin receptor 4,> 89.2 µM (inactive)
O=C(C=C1SCCS1)/C=C/c1ccco1,AC50,HEK293,10.8 µM (active)
same,IC50,[2],7.85 µM (active)
same,AC50,Cytochrome P450 3A4,15.8 µM (inconclusive)
same,AC50,Cytochrome P450 2D6,17.8 µM (inconclusive)
O=C(NCc1ccco1)c1sc2ccccc2c1Cl,AC50,[3],7.39 µM (active)
CC(=O)c1ccc(-c2cccc(-c3nc4ccccn4c3NC3CCCCC3)c2)cc1,AC50,[4],0.377 µM (active)
same,EC50,Protein RecA,0.178 µM (active)
same,AC50,Escherichia coli,299 µM (active)
O=c1oc(/C=C/c2ccco2)nc2sc3c(c12)CCC3,EC50,[5],> 99 µM (inactive)
same,EC50,[6],> 99 µM (inactive)
N#C/C(=C\c1ccc(-c2ccc(F)cc2)o1)C(=O)Nc1nc(-c2cccs2)cs1,EC50,[5],27.2 µM (inactive)
same,EC50,"Troponin, cardiac muscle",> 71.5 µM (inactive)
same,EC50,[7],25.6 µM (active)
same,EC50,[8],30 µM (active)
same,EC50,[6],> 99 µM (inactive)
same,EC50,Melanocortin receptor 4,> 89.2 µM (inactive)
COc1ccc(O)c(-c2cc(-c3cccs3)[nH]n2)c1,AC50,[3],10.6 µM (active)
COc1ccccc1-c1c(-c2ccc(O)cc2O)n[nH]c1C(F)(F)F,IC50,Protein Wnt-3a,2.07 µM (active)
CC1CC(=O)N(c2ccc(NCc3ccc(Cl)cc3)c([N+](=O)[O-])c2)C1=O (stereo not given),EC50,[5],> 99 µM (inactive)
same,EC50,[6],96.1 µM (inactive)
Cc1cc(Nc2ccccc2)nc2cc(O)ccc12,AC50,[3],4.44 µM (active)
same,EC50,[9],3.76 µM (active)
CCN1CCN(Cc2ccc(NC(=O)c3ccc(C)c(NC(=O)c4nccn4C)c3)cc2C(F)(F)F)CC1,AC50,HEK293,1.56 µM (active)
COC(=O)CSc1ncnc2c1sc1nc3c(cc12)COC(C)(C)C3,AC50,HEK293,4.32 µM (active)
O=C1C(Cl)=C(NCCc2ccccc2)C(=O)N1CCc1ccccc1,EC50,[5],> 99 µM (inactive)
same,EC50,[6],> 99 µM (inactive)
CN(Cc1nccs1)C(=O)c1cc(COc2cccc3cnccc23)on1,IC50,Protein Wnt-3a,1.3 µM (active)
same,AC50,[10],1.2 µM (active)
same,AC50,[11],2.77 µM (active)
same,AC50,[12],48.5 µM (active)
Cc1sc2ncnc(N3CCN(S(=O)(=O)c4ccc(C(C)(C)C)cc4)CC3)c2c1C,IC50,Protein Wnt-3a,6.86 µM (active)
same,AC50,INS1,3.23 µM (active)
CC(=O)Nc1cc(-c2cccc(C(=O)N(C)C)c2)cn2c(-c3ccc(F)c(Cl)c3)cnc12,EC50,Melanocortin receptor 4,> 89.2 µM (inactive)
O=C1C(O)=C(CC=C(Cl)Cl)C(=O)c2ccccc21,GI50,SN12K1,1.11 µM (active)
same,AC50,[3],4.87 µM (active)
same,GI50,P388/ADR,1.6 µM (inactive)
same,GI50,P388,1.8 µM (inactive)
COc1cccc(-c2cnc3c(NC(C)=O)cc(-c4ccc(C(=O)N5CCOCC5)cc4)cn23)c1,EC50,Melanocortin receptor 4,> 89.2 µM (inactive)
Cc1nn(-c2ccccc2)c(O)c1/C=N/c1ccc2[nH]c(O)nc2c1,EC50,[5],> 99 µM (inactive)
same,EC50,[6],> 99 µM (inactive)
Sc1nnc(C2CCCCC2)n1/N=C/c1ccncc1,AC50,HEK293,11.5 µM (active)
same,IC50,[13],> 100 µM (inactive)
same,IC50,[14],7.27 µM (active)
